According to patent publication US12648919B2, “Anticoccidial composition comprising coumaric acid and use thereof” (CJ CHEILJEDANG CORPORATION, priority 2021, dated 2026):

How the values were obtained:
[1] = test system: Eimeria tenella; experiment: Cell invasion inhibition of Eimeria tenella protozoa in MDBK cells (PCR, ITS-1 gene); format: cell-based; conditions: for inhibition at 10 ppm: read-out: Invasion inhibition %
Method: (§1) A certain amount of oocysts of each of Eimeria tenella and Eimeria acervulina was put in a tube containing glass beads and pulverized, and then to remove the crushed oocyst cell wall and other debris, internal sporocysts were purified using the percoll density gradient, and washed with PBS solution. A reagent comprising sodium taurocholic acid (Sigma aldrich, USA) and trypsin (Gibco, USA), respectively, was treated to sporocysts of Eimeria tenella, Eimeria acervulina and Eimeria maxima for excystation and they were incubated, and then they were washed with PBS solution once and protozoa were obtained.
(§2) The protozoa of Eimeria tenella and Eimeria acervulina were obtained by the method of Example 3-1 above. Sporozoites of 2×10^5 per well were added to a well in which MDBK cells (purchased from ATCC) spread as a monolayer and each material (p-coumaric acid: sigma, CAS No. 501-98-4, and anticoccidial agents, gallic acid: sigma, CAS No. 149-91-7, salinomycin: CAS No. sigma, 53003-10-4, diclazuril: sigma, CAS No. 101831-37-2, p-coumaric acid, gallic acid and salinomycin were treated by 10 ppm, and diclazuril was treated by 1 ppm) was treated to the cells, and cultured at a temperature of 40° C. for 24 hours. The negative control group is MDBK cells infected by the protozoa, and the positive control group means a group in which gallic acid, salinomycin or diclazuril solution was incubated with the protozoa. […] After removing the cells and protozoa inside the cells through pipetting, DNA was extracted from the cells, and PCR was performed using E. tenella ITS-1 (Internal transcribed spacer-1) gene or E. acervulina ACE gene-specific primers. The sequences of the used primers were described in Table 5 below.
(§3) Ct values before/after washing for each material were compared and corrected with the ΔCt value of the negative control group to calculate the fold change (2^−ΔCt) at each time point compared to the control group, and the invasion inhibition rate (%) of the protozoa by material treatment was calculated, and the result was shown in Table 6 and Table 7.
By the similar method to Example 3-2 above, 0.1% DMSO, p-coumaric acid (sigma, CAS No. 501-98-4), m-coumaric acid (sigma, 14755-02-3), and o-coumaric acid (sigma, 614-60-8) were treated at a concentration of 10 ppm, respectively, and the cell invasion inhibition rate against the Eimeria tenella protozoan was measured, and the result was shown in Table 9.

[2] = test system: Eimeria acervulina; experiment: Cell invasion inhibition of Eimeria acervulina protozoa in MDBK cells (PCR, ACE gene); format: cell-based; conditions: 40° C., 24 hours, p-coumaric acid, gallic acid, salinomycin 10 ppm, diclazuril 1 ppm
Method: as §1, §2, §3

[3] = test system: Eimeria tenella; experiment: Intracellular propagation inhibition of Eimeria tenella protozoa in MDBK cells (PCR, ITS-1 gene); format: cell-based
Method: as §1
The protozoa of Eimeria tenella were obtained by the method of Example 3-1 above. […] Each material (p-coumaric acid, and anticoccidial agents, gallic acid, salinomycin: 10 ppm and diclazuril: 1 ppm) to the cells, and further cultured at a temperature of 40° C. for 24 hours.
The negative control group is MDBK cells infected by the protozoa, and the positive control group means a group in which salinomycin, gallic acid, or diclazuril solution was incubated with the protozoa. After removing the cells and protozoa inside the cells through pipetting, DNA was extracted from the cells using DNA extract kit (iNtRON Biotechnology), and PCR was performed using E. tenella ITS-1 (Internal transcribed spacer-1) gene-specific primers. The sequences of the used primers were described in Table 5 above. Ct values before/after washing for each material were compared and corrected with the ΔCt value of the negative control group to calculate the fold change (2^−ΔCt) at each time point compared to the control group, and the invasion inhibition rate (%) of the protozoa by material treatment was calculated, and the result was shown in Table 6 above.

[4] = test system: Eimeria tenella protozoa (sporozoites); experiment: Direct killing effect against Eimeria tenella protozoa (sporozoites), microscopic count; conditions: 10 ppm; death rate compared to PBS-treated negative control group
Method: as §1, with “the protozoa” for “each of Eimeria tenella and Eimeria acervulina”, “tenella” for “tenella, Eimeria acervulina and Eimeria maxima”
After reacting 0.1% DMSO, m-coumaric acid (sigma, 14755-02-3), Caffeic acid (sigma, 331-39-5) and Ferulic acid (sigma, 1135-24-6) with the Eimeria tenella protozoa at a concentration of 10 ppm, respectively, only alive protozoa (sporozoites) were counted through microscopic observation. Then, the death rate (%) of the protozoa when each material was treated compared to the PBS-treated negative control group was measured, and the result was shown in Table 8 below.

[5] = test system: Eimeria tenella; experiment: In vivo anticoccidial efficacy in broilers challenge-inoculated with Eimeria tenella oocysts (anticoccidial index); design: species or system Ross broilers; conditions: in feed: salinomycin 60 ppm, VantiPEARL 125 ppm, p-coumaric acid 125 ppm; for Oocyst excretion amount: feces of 6-9th day of challenge inoculation, McMaster chamber; for ADG after challenge inoculation: before challenge to 7th day after challenge, 10,000 oocysts oral/broiler; for Oocyst index: index 0/5/10/20/40 from oocyst excretion % compared to infected negative control group; for Appendix lesion index: lesion score x 10; for ACI (anticoccidial index): out of 200 points, Equation 2; for Appendix lesion score: scale 0-4, 9th day after challenge inoculation; for Survival rate: up to the 8th day after challenge inoculation
Method: An in vivo efficacy evaluation test was performed in an exclusive broiler animal experiment facility in U.S. One-day-old female Ross broilers were individually weighed and randomly divided into groups to use in an experiment.
For the feed, Korea Feed A1-choi product was used, and each material (salinomycin (Cheil Bio Cheilsalino-60 product), VantiPEAL (Kemin, Cozante, key substance: Gallic acid), p-coumaric acid (CAS No. 501-98-4; sigma)) was added to the feed, respectively, at a concentration described in Table 3 below to be self-mixed. Antibiotics and supplements were not used in general feed and mixed feed, and no anticoccidial agent other than each material was added. Broilers were fed ad libitum throughout the experiment period.
Coccidiosis induction was performed by oral inoculation (challenge inoculation) in an oral tube type of 10,000 oocysts with over 90% mature (sporulation) Eimeria tenella per one individual to 14-day-old broilers.
The feed formulation administered to the control group (negative control group or positive control group) and test group and whether coccidiosis was induced by Eimeria tenella were described in Table 3 below. 6 1-day-old broilers were put in a cage randomly arranged for each test group, and after 14 days of feeding the general feed, the formulated feed prepared above was divided into each control group or test group and ingested.
The anticoccidial efficacy by test group designed in Example 1-2 above was shown as an anticoccidial index (ACI), and the anticoccidial index was calculated by Equation 2 below. The ACI score is out of 200 points, and the higher the ACI score, the more excellent the anticoccidial ability, and when it is 120 points or more to less than 140 points, it is determined that it is effective as an anticoccidial material, and when it is 140 points or more to less than 160 points, it is determined that it is excellent as an anticoccidial material, and when it is 160 points or more, it is determined that the anticoccidial effect is very excellent. (Luis Miguel De Pablos et al., Anticoccidial activity of maslinic acid against infection with Eimeria tenella in chickens, Parasitol Res, 2010) Anticoccidial index (ACI)=(survival rate after challenge inoculation (%))+(daily weight gain compared to negative control group (RWG, %))−(lesion score×10)−(fecal oocyst excretion amount index) (Equation 2)
1) Survival rate: the number of dead individuals was recorded daily, and post mortem autopsy was performed to determine a cause of mortality, and the number of individuals who died due to causes other than coccidiosis was excluded. The survival rate (%) up to the 8th day after challenge inoculation was used for anticoccidial index calculation.
2) Daily weight gain: body weight was measured for each cage before challenge inoculation with a protozoan into an individual and at the 7th day after challenge inoculation, and the difference was divided by the number of days to calculate the daily weight gain (ADG, g/d). ‘Daily weight gain compared to the negative control group (RWG, %)’ which was calculated by dividing the daily weight gain (ADG, average daily gain: g/d) of each experimental group by the weight gain (ADG, g/d) of the non-infected negative control group and multiplying by 100 was used for anticoccidial index calculation.
3) Lesion scoring: On the 9th day after challenge inoculation, an autopsy was conducted for 4 broilers per cage, and the intestines were incised and opened. Scoring was performed for each coccidial lesion in the appendix region of the broilers. The lesion scoring method was performed by referring to Johnson J K & Reid W M (1970) document (Joyce Johnson, W. Malcolm Reid, Anticoccidial drugs: Lesion scoring techniques in battery and floor-pen experiments with chickens, Experimental parasitology, 1970). […]

[6] = Example 3-2, MDBK cells, 40° C., 24 hours, p-coumaric acid, gallic acid, salinomycin 10 ppm, diclazuril 1 ppm
[7] = MDBK cells, material added after 24 h invasion and washing, further 24 hours at 40° C., p-coumaric acid, gallic acid, salinomycin 10 ppm, diclazuril 1 ppm
[8] = Eimeria tenella, Example 4-2, MDBK cells, 10 ppm

O=C(O)c1cc(O)c(O)c(O)c1 [Gallic acid, gallic acid]
Invasion inhibition % [1, 6]: 90.1%
Invasion inhibition % [2]: 60.6%
Propagation inhibition % [3, 7]: 0.0%

O=C(O)/C=C/c1cccc(O)c1 [m-coumaric acid]
Killed sporozoites % [4]: 10.7%
inhibition at 10 ppm [1, 8]: 29.8%

O=C(O)/C=C/c1ccc(O)c(O)c1 [Caffeic acid]
Killed sporozoites % [4]: 0%

O=C(O)/C=C/c1ccc(O)cc1 [p-coumaric acid]
inhibition at 10 ppm [1, 8]: 7.98%
Invasion inhibition % [1, 6]: 54.3%
Invasion inhibition % [2]: 82.6%
Propagation inhibition % [3, 7]: 43.9%
Oocyst excretion amount [5]: 5.7 × 10^7 Oocyst/chicken
RWG (daily weight gain compared to the non-infected negative control group) [5]: 94.5%
ADG after challenge inoculation [5]: 52 g/day
Oocyst index [5]: 10
Appendix lesion index [5]: 25
ACI (anticoccidial index) [5]: 160 points
Appendix lesion score [5]: 2.5
Survival rate [5]: 100%

N#CC(c1ccc(Cl)cc1)c1c(Cl)cc(-n2ncc(=O)[nH]c2=O)cc1Cl (stereo not shown) [Diclazuril, diclazuril]
inhibition at 1 ppm ([1]; Eimeria tenella, Example 3-2, MDBK cells, 40° C., 24 hours, p-coumaric acid, gallic acid, salinomycin 10 ppm, diclazuril 1 ppm): 6.3%
inhibition at 1 ppm ([2]; Eimeria acervulina): 42.7%
inhibition at 1 ppm ([3]; Eimeria tenella, MDBK cells, material added after 24 h invasion and washing, further 24 hours at 40° C., p-coumaric acid, gallic acid, salinomycin 10 ppm, diclazuril 1 ppm): 52.9%

CC[C@@H](C(=O)[C@@H](C)[C@@H](O)[C@H](C)[C@@H]1O[C@@H]([C@@H](CC)C(=O)O)CC[C@@H]1C)[C@H]1O[C@]2(C=C[C@@H](O)[C@]3(CC[C@@](C)([C@H]4CC[C@](O)(CC)[C@H](C)O4)O3)O2)[C@H](C)C[C@@H]1C [Salinomycin, salinomycin]
inhibition at 10 ppm ([1]; Eimeria tenella, MDBK, 24 h): 56.4%
inhibition at 10 ppm ([2]; Eimeria acervulina): 59.4%
inhibition at 10 ppm ([3]; Eimeria tenella, MDBK, 24 h, read-out: Propagation inhibition %): 34.8%
Oocyst excretion amount [5]: 6.3 × 10^7 Oocyst/chicken
RWG (daily weight gain compared to the non-infected negative control group) [5]: 81.8%
ADG after challenge inoculation [5]: 45 g/day
Oocyst index [5]: 10
Appendix lesion index [5]: 22.7
ACI (anticoccidial index) [5]: 149 points
Appendix lesion score [5]: 2.27
Survival rate [5]: 100%

COc1cc(/C=C/C(=O)O)ccc1O [Ferulic acid]
Killed sporozoites % [4]: 0%

O=C(O)/C=C/c1ccccc1O [o-coumaric acid]
inhibition at 10 ppm [1, 8]: 39.6%
